# Publication PMC11241262, “Unravelling the Antifibrinolytic Mechanism of Action of the 1,2,3-Triazole Derivatives” (International Journal of Molecular Sciences, 2024)
# What was measured:
# [1] = in vivo; conditions: dog, iv, 5 mg/kg; for Morbidity / Mortality: 24 h
# Experimental: For the pharmacokinetic study in Beagle dogs, a total of 3 male and 3 female dogs were selected. They were acclimatized for 5 days before dosing and at the start of dosing, dogs were between 36 and 37 months old. […] Sterile water was also selected as a vehicle for injection of compound 5. […] A constant dose volume of 1 mL/kg body weight was administered, adjusted according to the most recently recorded body weight of each dog. A single dose of 5 mg/kg b. wt. was selected in the case of dogs.
# Blood collection, plasma separation, and storage procedures were conducted following the same procedure as described for rats. Blood samples (600 µL) were collected from the cephalic vein of the forelimb for each dog. However, the concentration of compound 5 was determined using LC-MS/MS analysis. A column with identical characteristics to the one used in rats was employed, with a flow rate of 0.65 mL/min, a binary elution mode, and a run time of 6.0 min. Plasma samples were analyzed to determine the concentration of the active ingredient, and subsequently, the pharmacokinetic parameters were calculated. After a washout period of 7 days, dogs were returned back to stock.
# [2] = test system: whole blood clot formation; assay: Whole blood coagulation assay (clot formation, no exogenous tPA); parameters: species or system human; conditions: 40 µM, 37 °C, fibrinolysis not triggered
# Experimental: Blood was obtained by venipuncture from healthy donors after they signed an informed consent form. Blood was transferred into vacuum non-anticoagulant Vacutainer® tubes (BD, Franklin Lakes, NJ, USA). Blood samples were immediately used for the assay after extraction.
# Prior to blood addition, 20 µL of the evaluated compounds was added to glass tubes, in a final concentration of 40 µM. As a control clot, 20 µL of Tris HCl buffer with no compound was used. Next, 800 µL of blood was transferred to each tube followed by casual shaking to ensure proper mixing. Tubes were incubated at 37 °C for 30 min to allow clot formation and posterior lysis. Blood clotting and lysis were visually monitored and photographs were taken after 30 min.
# [3] = biological target: T1, plasminogen (Homo sapiens, UniProt P00747); assay: Plasminogen activation assay (conversion of plasminogen into plasmin by tPA in the absence of fibrin); type: biochemical
# T1 construct: purchased abcam
# Experimental: The conversion rate of plasminogen to plasmin was assessed using the Tissue-Type Plasminogen Activator Activity Assay Kit (abcam), following the manufacturer’s instructions. The assay measures the ability of tPA to activate plasminogen to plasmin in the presence of the tested compounds using a chromogenic substrate.
# A solution of plasminogen and plasmin substrate was mixed with a previously prepared solution of the studied compound and tPA in Tris HCl buffer in a 96-well plate. The final concentration of tPA in each well was 6.8 µg/mL, in a final volume of 100 µL. Absorbance was measured on a microplate reader at a wavelength of 405 nm every minute at 37 °C for 2 h or until the system reached saturation. The absorbance slope of each sample was determined using Equation (3). The Relative Plasminogen Activation (%) for each condition was calculated with Equation (4), using a control without a compound (enzyme control). (4) Relative Plasminogen Activation (%)=SlopeCompound−SlopeControl/SlopeControl×100
# Values were fitted to a linear model using MATLAB R2023a (The Math Works Inc., Natick, MA, USA). Concentrations at which each compound was able to increase plasminogen’s conversion by 50% in comparison to the enzyme control were extracted and compared for the three molecules.
# [4] = biological target: T2, tissue-type plasminogen activator (tPA) (Homo sapiens, UniProt P00750); assay: tPA activity assay (chromogenic substrate); type: biochemical
# T2 construct: purchased abcam
# Experimental: Tris hydrochloride, 1M, pH = 7.5 solution (Thermo Fisher Scientific, Waltham, MA, USA) was used as buffer. […] Recombinant human Tissue Plasminogen Activator (abcam, Cambridge, UK) served as the source of tPA, and was stored at −20 °C until used.
# The assay measures the inhibition of tPA’s catalytic domain by the tested compounds employing a chromogenic substrate. Different concentrations of the studied molecules were incubated with tPA in a 96-well plate at 37 °C for 10 min. […] After, 20 μL of tPA’s substrate was added to each well. […] The slope for each assay was obtained from the initial and final absorbance values and their respective time points, or until complete substrate cleavage was achieved. (3) Absorbance slope=Abs2−Abs1/t2−t1
# The Relative tPA Inhibition for each condition was calculated using Equation (2). Then, the Relative tPA Activity (%) was calculated by subtracting the relative tPA inhibition of each concentration from the total activity of the enzyme, obtained from a control without a compound.
# T2 sequence (P00750 36-562): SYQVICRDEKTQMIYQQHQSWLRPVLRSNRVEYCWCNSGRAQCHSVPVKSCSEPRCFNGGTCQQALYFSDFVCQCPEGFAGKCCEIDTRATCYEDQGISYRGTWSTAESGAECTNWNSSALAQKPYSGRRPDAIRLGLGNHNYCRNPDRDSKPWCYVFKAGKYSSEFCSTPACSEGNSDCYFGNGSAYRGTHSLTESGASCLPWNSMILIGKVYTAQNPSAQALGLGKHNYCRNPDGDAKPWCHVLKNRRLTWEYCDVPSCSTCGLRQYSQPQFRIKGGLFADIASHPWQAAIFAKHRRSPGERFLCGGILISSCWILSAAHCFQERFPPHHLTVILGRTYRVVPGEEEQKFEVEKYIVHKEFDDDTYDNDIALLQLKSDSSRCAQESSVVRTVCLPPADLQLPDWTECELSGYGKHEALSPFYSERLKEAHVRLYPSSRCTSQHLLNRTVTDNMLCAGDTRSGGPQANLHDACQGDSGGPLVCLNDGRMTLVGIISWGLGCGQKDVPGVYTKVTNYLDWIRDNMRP
# T1 sequence (P00747 20-810 limits assumed): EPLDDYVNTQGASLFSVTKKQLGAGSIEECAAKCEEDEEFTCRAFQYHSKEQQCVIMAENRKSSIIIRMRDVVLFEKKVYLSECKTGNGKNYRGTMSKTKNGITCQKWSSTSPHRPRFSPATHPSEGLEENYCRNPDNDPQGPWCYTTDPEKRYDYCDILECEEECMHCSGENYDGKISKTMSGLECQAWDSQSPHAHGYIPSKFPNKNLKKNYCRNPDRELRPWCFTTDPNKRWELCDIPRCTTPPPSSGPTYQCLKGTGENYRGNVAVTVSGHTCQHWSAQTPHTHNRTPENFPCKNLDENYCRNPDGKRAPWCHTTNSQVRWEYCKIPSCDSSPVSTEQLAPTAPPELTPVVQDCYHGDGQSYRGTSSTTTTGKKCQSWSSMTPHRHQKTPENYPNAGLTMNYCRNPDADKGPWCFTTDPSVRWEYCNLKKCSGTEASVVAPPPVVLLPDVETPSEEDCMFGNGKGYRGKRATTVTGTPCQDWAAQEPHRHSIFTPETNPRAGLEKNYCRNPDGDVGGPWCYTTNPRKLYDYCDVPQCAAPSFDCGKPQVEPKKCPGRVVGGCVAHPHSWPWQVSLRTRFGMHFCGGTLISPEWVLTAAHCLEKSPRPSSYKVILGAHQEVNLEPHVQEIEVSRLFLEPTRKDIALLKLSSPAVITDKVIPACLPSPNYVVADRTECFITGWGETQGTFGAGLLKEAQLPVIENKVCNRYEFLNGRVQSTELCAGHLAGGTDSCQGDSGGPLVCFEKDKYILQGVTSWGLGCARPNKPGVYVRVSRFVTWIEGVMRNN
structure (smiles),measurement,setting,value
O=c1[nH]nc(-c2cn(C3CCNCC3)nn2)o1 [compound 5],Clinical signs observed: N of dogs with Mild vomiting,"[1]; female, Beagle",1
same,Cmax,"[1]; female, Beagle",15800 ng/mL
same,Kel,"[1]; female, Beagle",0.23 h‐1
same,Tmax,"[1]; female, Beagle",4.8 min
same,half-life,"[1]; female, Beagle",3.04 h
same,Morbidity,"[1]; female, Beagle",0 number of dogs
same,Mortality,"[1]; female, Beagle",0 number of dogs
same,Clinical signs observed: N of dogs with Mild vomiting,"[1]; male, Beagle",1
same,Cmax,"[1]; male, Beagle",14000 ng/mL
same,Kel,"[1]; male, Beagle",0.24 h‐1
same,Tmax,"[1]; male, Beagle",4.8 min
same,half-life,"[1]; male, Beagle",2.88 h
same,Morbidity,"[1]; male, beagle",0 number of dogs
same,Mortality,"[1]; male, beagle",0 number of dogs
same,effect on clot formation,[2],do not have any effect
same,potency relative to TXA in catalyzing plasminogen's activation by tPA,[3]; from concentration enhancing tPA's activity by 50%,more than 50 times
same,concentration at which compound increased tPA's activity by 50%,"[3]; plasminogen-tPA isolated system, absence of fibrin",4.03 µM
same,percentage of tPA's activity,[4]; 0.5 mM,93.70%
same,percentage of tPA's activity,[4]; 1 mM,91.18%
same,percentage of tPA's activity,[4]; 5 mM,88.78%
same,percentage of tPA's activity,[4]; 10 mM,89.39%
same,percentage of tPA's activity,[4]; 15 mM,103.70%
same,activity on tPA's active site,[4]; at the tested concentrations,no activity
